From US7109193B2, “Tricyclic diazepines tocolytic oxytocin receptor antagonists” (Wyeth, priority 2001, dated 2006)
Where a name gives a salt, the structure may show the parent alone.

Target: T1, human oxytocin receptor (Homo sapiens, UniProt P30559)
T1 construct: host or cells: CHO cells (pcDNA3.1 vector)
T1 sequence (P30559 1-389): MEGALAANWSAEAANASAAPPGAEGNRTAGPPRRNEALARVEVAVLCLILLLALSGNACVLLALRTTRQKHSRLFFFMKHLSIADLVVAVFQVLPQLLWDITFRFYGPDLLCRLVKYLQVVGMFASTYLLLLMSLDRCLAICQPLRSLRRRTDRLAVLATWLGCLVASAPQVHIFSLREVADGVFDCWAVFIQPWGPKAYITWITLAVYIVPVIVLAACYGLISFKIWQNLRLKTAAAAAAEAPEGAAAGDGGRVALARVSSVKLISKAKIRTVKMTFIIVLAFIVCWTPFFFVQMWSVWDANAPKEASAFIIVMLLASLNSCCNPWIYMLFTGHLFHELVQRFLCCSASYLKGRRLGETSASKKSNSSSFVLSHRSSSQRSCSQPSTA
Assay: Oxytocin binding in Chinese Hamster Ovary cell membranes expressing human oxytocin receptors
Conditions: CHO cell membranes, [3H]oxytocin; for inhibition at 0.1 µM: 100 nM, values without parentheses, read-out: OT % inhibition @ 100% nM; for IC50: values in parentheses, read-out: OT (IC50)

SMILES	inhibition at 0.1 µM [%]	IC50 [nM]
COc1ccccc1-c1ccc(C(=O)N2Cc3ccc(C(=O)NCCCN(C)C)n3Cc3ccccc32)cc1OC [Example 81, 10-[(2,2′-Dimethoxy[1,1′-biphenyl]-4-yl)carbonyl]-N-[3-(dimethylamino)propyl]-10,11-dihydro-5H-pyrrolo[2,1-c][1,4]benzodiazepine-3-carboxamide]	43	–
COc1cc(-c2ccccc2C)ccc1C(=O)N1Cc2ccc(C(=O)N(C)CCCN(C)C)n2Cc2ccccc21 [Example 11, N-Methyl-N-[3-(dimethylamino)propyl]-10-[(3-methoxy-2′-methyl[1,1′-biphenyl]-4-yl)carbonyl]-10,11-dihydro-5H-pyrrolo[2,1-c][1,4]benzodiazepine-3-carboxamide]	–	3.44
Cc1ccc(-c2ccc(C(=O)N3Cc4cccn4Cc4ccccc43)cc2)c2ccccc12 [Example 25, [4-(4-Methyl-naphthalen-1-yl)phenyl][10,11-dihydro-5H-pyrrolo[2,1-c][1,4]benzodiazepin-10-yl]methanone]	–	55.8
COc1cccc(-c2cc(OC)c(C(=O)N3Cc4ccc(C(=O)N(C)CCCN(C)C)n4Cc4ccccc43)cc2Cl)c1 [Example 99, 10-[(6-Chloro-3,3′-dimethoxy[1,1′-biphenyl]-4-yl)carbonyl]-N-[3-(dimethylamino)propyl]-N-methyl-10,11-dihydro-5H-pyrrolo[2,1-c][1,4]benzodiazepine-3-carboxamide]	–	2.04
COc1ccccc1-c1ccc(C(=O)N2Cc3ccc(C(=O)N4CCC(N5CCCCC5)CC4)n3Cc3ccccc32)cc1 [Example 111, {10-[(2′-Methoxy[1,1′-biphenyl]-4-yl)carbonyl]-10,11-dihydro-5H-pyrrolo[2,1-c][1,4]benzodiazepin-3-yl}[4-(1-piperidinyl)-1-piperidinyl]methanone]	–	6.7
COc1ccccc1-c1ccc(C(=O)N2Cc3ccc(C(=O)N(C)CCN(C)C)n3Cc3ccccc32)cc1C [Example 88, N-[2-(Dimethylamino)ethyl]-10-[(2′-methoxy-2-methyl[1,1′-biphenyl]-4-yl)carbonyl]-N-methyl-10,11-dihydro-5H-pyrrolo[2,1-c][1,4]benzodiazepine-3-carboxamide]	98	–
COc1ccccc1-c1ccc(C(=O)N2Cc3ccc(C(=O)N4CCN(CCN5CCOCC5)CC4)n3Cc3ccccc32)cc1C [Example 206, {10-[(2′-Methoxy-2-methyl[1,1′-biphenyl]-4-yl)carbonyl]-10,11-dihydro-5H-pyrrolo[2,1-c][1,4]benzodiazepin-3-yl}{4-[2-(4-morpholinyl)ethyl]-1-piperazinyl}methanone]	–	3.66

Next, values leading:

inhibition at 0.1 µM [%]	IC50 [nM]	SMILES
–	6.37	Cc1cc(C(=O)N2Cc3ccc(C(=O)NC(=N)N)n3Cc3ccccc32)ccc1-c1ccccc1C(F)(F)F [Example 8, N-[(10-{[2-methyl-2′-(trifluoromethyl)[1,1′-biphenyl]-4-yl]carbonyl}-10,11-dihydro-5H-pyrrolo[2,1-c][1,4]benzodiazepin-3-yl)carbonyl]guanidine]
–	18.1	COc1cc(C(=O)N2Cc3cccn3Cc3ccccc32)ccc1-n1c(C)ccc1C [Example 27, [4-(2,5-Dimethyl-1-H-pyrrol-1-yl)-3-methoxy-phenyl][10,11-dihydro-5H-pyrrolo[2,1-c][1,4]benzodiazepin-10-yl]methanone]
–	11.4	Cc1cc(C(=O)N2Cc3ccc(C(=O)N4CCNCC4)n3Cc3ccccc32)ccc1-c1ccccc1C(F)(F)F [Example 7, 10,11-Dihydro-10-[[2-methyl-2′-trifluoromethyl-[1,1′-biphenyl]-4-yl]carbonyl]-3-(1-piperazinylcarbonyl)-5H-pyrrolo[2,1-c][1,4]benzodiazepine hydrochloride salt]
97	–	COc1cccc(-c2ccc(C(=O)N3Cc4ccc(C(=O)N(C)CCN(C)C)n4Cc4ccccc43)cc2C)c1 [Example 89, N-[2-(Dimethylamino)ethyl]-10-[(3′-methoxy-2-methyl[1,1′-biphenyl]-4-yl)carbonyl]-N-methyl-10,11-dihydro-5H-pyrrolo[2,1-c][1,4]benzodiazepine-3-carboxamide]
